Data: patent US20090318446A1, “4-(1H-Indol-3-yl)-Pyrimidin-2-Ylamine Derivatives and Their Use in Therapy” (Cyclacel Limited, priority 2005, published 2009)
Read-outs that look alike come from different tables or passages of the source.

Experiments:
[1] = molecular target: Drosophila Aurora A (Drosophila melanogaster, UniProt Q9VGF9); experiment: Aurora A kinase assay (Drosophila enzyme); format: biochemical; conditions: Table 3, values marked *: Drosophila Aurora A; read-out: Kinase inhibition Aurora A (*Drosophila Aurora A)
Procedure: (§1) The compounds from the examples above were investigated for their ability to inhibit the enzymatic activity of various protein kinases. This was achieved by measurement of incorporation of radioactive phosphate from ATP into appropriate polypeptide substrates. Recombinant protein kinases and kinase complexes were produced or obtained commercially. Assays were performed using 96-well plates and appropriate assay buffers (typically 25 mM β-glycerophosphate, 20 mM MOPS, 5 mM EGTA, 1 mM DTT, 1 mM […], pH 7.4), into which were added 2-4 μg of active enzyme with appropriate substrates. The reactions were initiated by addition of Mg/ATP mix (15 mM MgCl2+100 μM ATP with 30-50 kBq per well of [γ-^32P]-ATP) and mixtures incubated as required at 30° C. Reactions were stopped on ice, followed by filtration through p81 filterplates or GF/C filterplates (Whatman Polyfiltronics, Kent, UK). After washing 3 times with 75 mM aq orthophosphoric acid, plates were dried, scintillant added and incorporated radioactivity measured in a scintillation counter (TopCount, Packard Instruments, Pangbourne, Berks, UK). Compounds for kinase assay were made up as 10 mM stocks in DMSO and diluted into 10% DMSO in assay buffer. Data was analysed using curve-fitting software (GraphPad Prism version 3.00 for Windows, GraphPad Software, San Diego Calif. USA) to determine IC50 values (concentration of test compound which inhibits kinase activity by 50%).

[2] = molecular target: CDK1/cyclin B (Homo sapiens, UniProt P06493); experiment: Kinase assay CDK1/cyclin B; format: biochemical; conditions: Table 2; read-out: Kinase inhibition IC50 CDK1B
Procedure: as §1

[3] = molecular target: CDK2/cyclin A (Homo sapiens, UniProt P24941); experiment: Kinase assay CDK2/cyclin A; format: biochemical; conditions: Table 2; read-out: Kinase inhibition IC50 CDK2A
Procedure: as §1

[4] = molecular target: CDK7/cyclin H (Homo sapiens, UniProt P50613); experiment: CDK 7 assay; format: biochemical
Procedure: CTD peptide substrate (biotinyl-Ahx-(Tyr-Ser-Pro-Thr-Ser-Pro-Ser)4-NH2; 1-2 mg/mL) and recombinant human CDK7/cyclin H, CDK9/cyclin TI, or CDK9/cyclin K (0.5-2 μg) were incubated for 45 min at 30° C. in the presence of varying amounts of test compound in 20 mM MOPS pH 7.2, 25 mM β-glycerophosphate, 5 mM EGTA, 1 mM DTT, 1 mM sodium vanadate, 15 mM MgCl2, and 100 μM ATP (containing a trace amount of ^32PγATP) in a total volume of 25 μL in a 96-well microtiter plate. The reaction was stopped by placing the plate on ice for 2 min. Avidin (50 μg) was added to each well, and the plate was incubated at room temp for 30 min. The samples were transferred to a 96-well P81 filter plate, and washed (4×200 μL per well) with 75 mM phosphoric acid. Microscint 40 scintillation liquid (50 μL) was added to each well, and the amount of ^32P incorporation for each sample was measured using a Packard Topcount microplate scintillation counter.

[5] = molecular target: GSK-3β (Oryctolagus cuniculus, UniProt G1T8E2); experiment: GSK-3β kinase assay; format: biochemical, rabbit; conditions: Table 2; read-out: Kinase inhibition IC50 GSK3
Procedure: GSK-3 was obtained from New England Biolabs (UK) Ltd., Hitchin, Herts. The recombinant enzyme was isolated from a strain of E. coli that carries a clone expressing GSK-3β derived from a rabbit skeletal muscle cDNA library [Wang, Q. M.; Fiol, C. J.; DePaoli-Roach, A. A.; Roach, P. J. J. Biol. Chem., 1994, 269, 14566]. Inhibition of GSK-3 function was assessed by measurement of phosphorylation of CREB phosphopeptide KRREILSRRPphosphoSYR in the presence of test compounds. Using a 96-well assay format, GSK3 (7.5 U) was incubated for 30 min at 30° C. in a total volume of 25 μL in 20 mM MOPS pH 7.2, 25 mM β-glycerophosphate, 5 mM EGTA, 1 mM DTT, 1 mM […], 40 μM CREB peptide, 15 mM MgCl2 and 100 μM ATP (containing 0.25 μCi [γ-^32P]-ATP) in the presence of varying concentrations of test compound. The samples were transferred to 96-well p81 filter plates (Whatman Polyfiltronics, Kent, UK), and the plates were washed 4 times with 200 μL/well of 75 mM aq orthophosphoric acid. Scintillation liquid (50 μL) was added to each well, and incorporated radioactivity for each sample was determined using a scintillation counter (TopCount, Packard Instruments, Pangbourne, Berks, UK).

[6] = test system: Mia-PaCa-2; experiment: MTT cytotoxicity assay, Mia-PaCa-2; format: cell-based; conditions: Homo sapiens, after incubation
Procedure: (§2) The compounds of the invention were subjected to a standard cellular proliferation assay using human tumour cell lines obtained from the ATCC (American Type Culture Collection, 10801 University Boulevard, Manessas, Va. 20110-2209, USA). […] C.; Thomas, D. G.; Darling, J. L. Anti Cancer Drugs 1996, 7, 331-8; Loveland, B. E.; Johns, T. G.; Mackay, 1. R.; Vaillant, F.; Wang, Z. X.; Hertzog, P. J. Biochemistry International 1992, 27, 501-10). In short: cells were seeded into 96-well plates according to doubling time and incubated overnight at 37° C. […] MTT was made up as a stock of 5 mg/mL in cell media and filter-sterilised. Media was removed from cells followed by a wash with 200 μL PBS. MTT solution was then added at 20 μL per well and incubated in the dark at 37° C. for 4 h MTT solution was removed and cells again washed with 200 μL PBS. MTT dye was solubilised with 200 μL per well of DMSO with agitation. Absorbance was read at 540 nm and data analysed using curve-fitting software (GraphPad Prism version 3.00 for Windows, GrapbPad Software, San Diego Calif. USA) to determine IC50 values (concentration of test compound which inhibits cell growth by 50%).

[7] = test system: A2780; experiment: MTT cytotoxicity assay, A2780; format: cell-based; conditions: Homo sapiens, after incubation
Procedure: as §2

[8] = Table 2, read-out: Kinase inhibition IC50 CDK7H
[9] = Table 3, read-out: Kinase inhibition CDK7H

Sequence of GSK-3β (G1T8E2 1-432): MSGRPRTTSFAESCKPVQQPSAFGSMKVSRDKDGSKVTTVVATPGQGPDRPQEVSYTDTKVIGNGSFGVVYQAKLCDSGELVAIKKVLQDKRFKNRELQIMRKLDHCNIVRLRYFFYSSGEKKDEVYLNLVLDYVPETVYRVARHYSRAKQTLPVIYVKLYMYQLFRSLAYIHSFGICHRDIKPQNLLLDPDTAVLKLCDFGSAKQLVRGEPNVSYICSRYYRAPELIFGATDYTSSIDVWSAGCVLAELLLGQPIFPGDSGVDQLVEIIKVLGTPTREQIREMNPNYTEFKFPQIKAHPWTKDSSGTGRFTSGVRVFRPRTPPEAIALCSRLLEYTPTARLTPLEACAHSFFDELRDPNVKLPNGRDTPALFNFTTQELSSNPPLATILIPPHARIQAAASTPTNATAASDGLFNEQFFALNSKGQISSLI
Sequence of Drosophila Aurora A (Q9VGF9 entry or part of it): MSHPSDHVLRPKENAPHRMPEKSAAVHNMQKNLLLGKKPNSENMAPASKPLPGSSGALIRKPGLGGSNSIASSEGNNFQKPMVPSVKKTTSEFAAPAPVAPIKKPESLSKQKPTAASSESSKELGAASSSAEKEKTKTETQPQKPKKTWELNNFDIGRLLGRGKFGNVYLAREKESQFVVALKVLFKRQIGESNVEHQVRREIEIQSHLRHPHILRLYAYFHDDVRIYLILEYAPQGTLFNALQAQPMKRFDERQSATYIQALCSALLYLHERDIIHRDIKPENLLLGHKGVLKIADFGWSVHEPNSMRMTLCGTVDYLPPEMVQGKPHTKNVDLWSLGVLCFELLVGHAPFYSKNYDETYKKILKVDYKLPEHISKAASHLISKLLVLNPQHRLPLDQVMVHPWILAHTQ
Sequence of CDK7/cyclin H (P50613 whole entry): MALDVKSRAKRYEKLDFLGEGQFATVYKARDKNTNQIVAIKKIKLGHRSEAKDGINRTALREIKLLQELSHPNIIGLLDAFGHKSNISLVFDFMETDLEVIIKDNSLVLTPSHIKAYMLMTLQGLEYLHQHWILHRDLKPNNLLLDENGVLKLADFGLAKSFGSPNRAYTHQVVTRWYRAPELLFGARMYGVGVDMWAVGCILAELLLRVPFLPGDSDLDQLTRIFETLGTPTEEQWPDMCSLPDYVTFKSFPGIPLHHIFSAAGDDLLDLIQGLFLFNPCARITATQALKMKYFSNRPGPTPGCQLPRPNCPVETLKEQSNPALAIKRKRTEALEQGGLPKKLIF
Sequence of CDK7/cyclin H (P51946 whole entry partner): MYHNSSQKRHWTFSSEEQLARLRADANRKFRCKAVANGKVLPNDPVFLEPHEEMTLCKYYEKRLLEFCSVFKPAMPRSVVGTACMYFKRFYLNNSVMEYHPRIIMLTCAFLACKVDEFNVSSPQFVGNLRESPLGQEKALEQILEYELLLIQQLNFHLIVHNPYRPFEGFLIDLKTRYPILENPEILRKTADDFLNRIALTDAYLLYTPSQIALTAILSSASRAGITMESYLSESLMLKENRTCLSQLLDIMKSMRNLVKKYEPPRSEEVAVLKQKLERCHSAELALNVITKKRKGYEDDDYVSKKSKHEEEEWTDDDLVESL
Sequence of CDK1/cyclin B (P06493 whole entry, species assumed): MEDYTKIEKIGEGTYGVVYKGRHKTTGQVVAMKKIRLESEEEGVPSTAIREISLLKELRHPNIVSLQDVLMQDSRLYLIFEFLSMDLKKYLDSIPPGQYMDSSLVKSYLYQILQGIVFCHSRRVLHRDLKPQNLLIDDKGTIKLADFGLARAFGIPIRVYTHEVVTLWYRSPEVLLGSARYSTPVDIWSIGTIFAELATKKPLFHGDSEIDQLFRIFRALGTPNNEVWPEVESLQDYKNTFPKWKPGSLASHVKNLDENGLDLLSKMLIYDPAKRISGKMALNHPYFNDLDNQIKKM
Sequence of CDK1/cyclin B (P14635 whole entry partner, species assumed): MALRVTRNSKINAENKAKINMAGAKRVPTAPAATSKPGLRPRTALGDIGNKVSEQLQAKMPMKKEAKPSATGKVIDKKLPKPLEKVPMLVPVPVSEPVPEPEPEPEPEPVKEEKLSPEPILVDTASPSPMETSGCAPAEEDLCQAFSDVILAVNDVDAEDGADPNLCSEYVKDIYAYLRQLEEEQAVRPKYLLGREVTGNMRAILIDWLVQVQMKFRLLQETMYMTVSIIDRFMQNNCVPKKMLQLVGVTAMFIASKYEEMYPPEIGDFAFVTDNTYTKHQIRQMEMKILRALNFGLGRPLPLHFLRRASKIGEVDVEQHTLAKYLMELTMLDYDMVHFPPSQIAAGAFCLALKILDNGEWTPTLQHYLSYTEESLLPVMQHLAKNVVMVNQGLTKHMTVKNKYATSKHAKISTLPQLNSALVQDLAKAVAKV

For `O=[N+]([O-])c1cccc(Nc2nccc(-c3c[nH]c4ccccc34)n2)c1` [Compound 2, [4-(1H-Indol-3-yl)-pyrimidin-2-yl]-(3-nitro-phenyl)-amine], the IC50 [1] was 274 nM, the IC50 [2] was greater than 100000 nM and the IC50 [3] was greater than 100000 nM. The IC50 [4, 8] was greater than 100000 nM and the IC50 [5] was 2100 nM.
Work on `Fc1ccc(Nc2nccc(-c3c[nH]c4ccccc34)n2)cc1` [Compound 3, (4-Fluoro-phenyl)-[4-(1H-indol-3-yl)-pyrimidin-2-yl]-amine] yielded an IC50 [1] of 1050 nM, an IC50 [2] greater than 100000 nM and an IC50 [3] greater than 100000 nM. For the same compound, the IC50 [4, 8] was greater than 100000 nM and the IC50 [5] was 8700 nM.
`COc1ccc(Nc2nccc(-c3c[nH]c4ccccc34)n2)cn1` [Compound 4, [4-(1H-Indol-3-yl)-pyrimidin-2-yl]-(6-methoxy-pyridin-3-yl)-amine] was tested, and the IC50 [1] was 243 nM, the IC50 [2] was 1900 nM and the IC50 [3] was 2600 nM. For the same compound, the IC50 [4, 8] was 5400 nM, the IC50 [4, 9] was 5440 nM and the IC50 [5] was 1600 nM.
`c1ccc2c(-c3ccnc(Nc4ccc(N5CCOCC5)cc4)n3)c[nH]c2c1` [Compound 5, [4-(1H-Indol-3-yl)-pyrimidin-2-yl]-(4-morpholin-4-yl-phenyl)-amine] gave an IC50 [4, 8] greater than 10000 nM, an IC50 [6] of 2400 nM and an IC50 [7] of 1030 nM.
`CC(=O)N1CCN(c2ccc(Nc3nccc(-c4c[nH]c5ccccc45)n3)cc2)CC1` [Compound 6, 4-(1H-indol-3-yl)-N-(4-acetylpiperazin-1-ylphenyl)pyrimidin-2-amine] was tested, and the IC50 [6] was 785 nM and the IC50 [7] was 789 nM.
For `c1ccc2c(-c3ccnc(Nc4ccc(N5CCNCC5)cc4)n3)c[nH]c2c1` [Compound 7, 4-(1H-indol-3-yl)-N-(4-piperazin-1-ylphenyl)pyrimidin-2-amine], the IC50 [4, 9] was 2530 nM, the IC50 [6] was 166 nM and the IC50 [7] was 86 nM.
`CC1CN(c2ccc(Nc3nccc(-c4c[nH]c5ccccc45)n3)cc2)CC(C)O1` (stereo not shown) [Compound 9] gave an IC50 [4, 9] of 6670 nM, an IC50 [6] of 6230 nM and an IC50 [7] of 5450 nM.
`CN(C)c1ccc(Nc2nccc(-c3c[nH]c4ccccc34)n2)cc1` [Compound 10, N′-[4-(1H-indol-3-yl)pyrimidin-2-yl]-N,N-dimethylbenzene-1,4-diamine] was tested, and the IC50 [4, 9] was 5230 nM, the IC50 [6] was 5480 nM and the IC50 [7] was 485 nM.
In the case of `COc1cc(Nc2nccc(-c3c[nH]c4ccccc34)n2)cc(OC)c1OC` [Compound 12, 4-(1H-indol-3-yl)-N-(3,4,5-trimethoxyphenyl)pyrimidin-2-amine], the IC50 [6] is reported as 77 nM and the IC50 [7] is reported as 43 nM.
For `COc1cc(Nc2nccc(-c3c[nH]c4ccccc34)n2)ccc1N1CCOCC1` [Compound 13, 4-(1H-indol-3-yl)-N-(3-methoxyl-4-morpholin-4-ylphenyl)pyrimidin-2-amine], the IC50 [6] was 6730 nM and the IC50 [7] was 2480 nM.
`CC(=O)N1CCN(c2ccc(Nc3nccc(-c4c(C)[nH]c5ccccc45)n3)cc2)CC1` [Compound 22] gave an IC50 [4, 9] of 6660 nM, an IC50 [6] of 778 nM and an IC50 [7] of 299 nM.
For `CC(=O)N1CCN(c2ccc(Nc3nccc(-c4c[nH]c5c(C)cccc45)n3)cc2)CC1` [Compound 23], the IC50 [4, 9] was 3470 nM, the IC50 [6] was 789 nM and the IC50 [7] was 448 nM.
